The test deals with T1, hROMK (hKir1.1) (Homo sapiens, UniProt P48048).
T1 construct: expressed in transfected cells
T1 sequence (P48048 1-391): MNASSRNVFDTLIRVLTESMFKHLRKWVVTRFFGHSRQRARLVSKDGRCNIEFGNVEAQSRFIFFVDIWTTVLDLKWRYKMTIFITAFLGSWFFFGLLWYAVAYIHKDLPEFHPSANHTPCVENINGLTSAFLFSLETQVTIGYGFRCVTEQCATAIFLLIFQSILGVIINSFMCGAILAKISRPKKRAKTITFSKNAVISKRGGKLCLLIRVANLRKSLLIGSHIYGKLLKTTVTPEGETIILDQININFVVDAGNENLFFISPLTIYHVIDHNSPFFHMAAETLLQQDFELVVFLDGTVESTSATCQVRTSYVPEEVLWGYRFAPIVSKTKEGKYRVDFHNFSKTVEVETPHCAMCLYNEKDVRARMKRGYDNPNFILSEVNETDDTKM
Kind of test: Thallium Flux Assay (ROMK channel functional thallium flux, FLIPR-Tetra). It is filed as cell-based. The note with it: HEK293 cells stably expressing hROMK (hKir1.1); 30 min compound incubation. How it is done:
The following Thallium Flux Assay was performed on each of the final product compounds in the Examples.
Cell Culture Conditions—HEK293 cells stably expressing hROMK (hKir1.1) were grown at 37° C. in a 10% CO2 humidified incubator in complete growth media: Dulbecco's Modified Eagle Medium supplemented with non-essential amino acids, Penicillin/Streptomycin/Glutamine, G418 and FBS. At >80% confluency, aspirate the media from the flask and rinse with 10 mL Calcium/Magnesium-free PBS. Add 5 mL of 1× trypsin (prepared in Ca/Mg Free PBS) to T-225 flask and return flask to 37° C./CO2 incubator for 2-3 minutes. To dislodge the cell, gently bang the side of the flask with your hand. Triturate the cells completely and then transfer the cells to 25 mL complete media. Centrifuge at 1,500 rpm for 6 min followed by resuspension in complete growth media and determine cell concentration. For typical re-seeding, 4E6 cells/T-225 flask will attain >80% confluency in 4 days. Under ideal growth conditions and appropriate tissue culture practices, this cell line is stable for 40-45 passages. FluxOR Kit Components (Invitrogen F10017) • FluxOR™ Reagent (Component A) • FluxOR™ Assay Buffer (Component B)—10× Concentrate • PowerLoad™ Concentrate (Component C)—100× Concentrate • Probenecid (Component D)—Lyophilized sample is kept at −20° C. Water soluble, 100× after solubilization in 1 mL water. Store at 4° C. • FluxOR™ Chloride-free Buffer (Component E)—5× Concentrate • Potassium sulfate (K2SO4) Concentrate (Component F)—125 mM in water. Store at 4° C. • Thallium sulfate (Tl2SO4) Concentrate (Component G)—50 mM in water. Store at 4° C. • DMSO (dimethyl sulfoxide, Component H)—1 mL (100%) Reagent Preparation: FluxOR Working Solutions • 1000× FluxOR™ Reagent: Reconstitute a vial of component A in 100 μl DMSO; Mix well; Store 10 μl aliquots at −20° C. • 1× FluxOR™ Assay Buffer: Dilute Component B 10-fold with water; Adjust pH to 7.4 with Hepes/NaOH; Filter and store at 4° C. • Probenecid/Assay Buffer: 100 mL of 1× FluxOR™ Assay Buffer; 1 mL of reconstituted component D; Store at 4° C. • Loading Buffer (per microplate): 10 μl 1000× FluxOR™ Reagent; 100 μl component C; 10 mL Probenecid/Assay Buffer • Compound Buffer (per microplate): 20 mL Probenecid/Assay Buffer; 0.3 mM ouabain (10 mM ouabain in water can be stored in amber bottle/aluminum foil at room temperature); Test compound • 1× FluxOR™ Chloride-Free Buffer: Prepare 1× working solution in water. Can be stored at room temperature • Stimulant Buffer (prepared at 5× final concentration in 1× FluxOR™ Chloride-Free Buffer): 7.5 mM Thallium sulfate and 0.75 mM Potassium sulfate (to give a final assay concentration of 3 mM Thallium/0.3 mM Potassium). Store at 4° C. when not in use. If kept sterile, this solution is good for months. Assay Protocol—The ROMK channel functional thallium flux assay is performed in 384 wells, using the FLIPR-Tetra instrument. HEK-hKir1.1 cells are seeded in Poly-D-Lysine microplates and kept in a 37° C.-10% CO2 incubator overnight. On the day of the experiment, the growth media is replaced with the FluxOR™ reagent loading buffer and incubated, protected from light, at ambient temperature (23-25° C.) for 90 min. The loading buffer is replaced with assay buffer±test compound followed by 30 min incubation at ambient temperature, where the Thallium/Potassium stimulant is added to the microplate. Step Protocol • 1. Seed HEK-hKir1.1 cells (50 μl at 20,000 cells/well) in 384-well PDL coated Microplates • 2. Allow cells to adhere overnight in humidified 37° C./10% CO2 incubator • 3. Completely remove cell growth media from microplate and replace with 25 μl loading buffer • 4. Incubate Microplate at room temperature, protected form light, for 90 min • 5. Remove loading buffer and replace with 25 μl 1× Assay Buffer±test compound. • 6. Incubate microplate at room temperature, protected from light, for 30 min • 7. At FLIPR-Tetra 384: Add stimulant (Thallium/Potassium) solution to microplate and monitor fluorescence. […]

A word on the IC50: it is the concentration needed to halve the response being measured. The compound `CC1=C(N2CC(O)C3(CC4CCC(C3)N4C[C@H](O)c3ccc(-n4cnnn4)nc3)C2=O)COC1=O` (single isomer, unassigned) [Example 104] gave an IC50 of 120 nM. To `CC1=C(N2CC(O)C3(CC4CCC(C3)N4C[C@@H](O)c3ccc(-n4cnnn4)nc3)C2=O)COC1=O` (single isomer, unassigned) [Example 105] belongs 130 nM. Turning to `CC1=C(N2CC(O)C3(CC4CCC(C3)N4C[C@H](O)c3ccc(-n4cnnn4)nc3)C2=O)COC1=O` (single isomer, unassigned) [Example 106], the midpoint of inhibition, the IC50, lay at 60 nM. Compound `CC1=C(N2CC(O)C3(CC4CCC(C3)N4C[C@@H](O)c3ccc(-n4cnnn4)nc3)C2=O)COC1=O` (single isomer, unassigned) [Example 107] yielded an IC50 of 110 nM. To `COC1CN(C2=C(C)C(=O)OC2)C(=O)C12CC1CCC(C2)N1C[C@H](O)c1ccc(-n2cnnn2)nc1` (single isomer, unassigned) [Example 108] belongs 40 nM. The value for `COC1CN(C2=C(C)C(=O)OC2)C(=O)C12CC1CCC(C2)N1C[C@@H](O)c1ccc(-n2cnnn2)nc1` (single isomer, unassigned) [Example 109] was 60 nM; that for `CC1=C(N2CC(O)C3(CCN(C[C@H](O)c4ccc(-n5cnnn5)nc4)CC3)C2=O)COC1=O` (single isomer, unassigned) [Example 110] was 120 nM; that for `CC1=C(N2CC(O)C3(CCN(C[C@H](O)c4ccc(-n5cnnn5)nc4)CC3)C2=O)COC1=O` (single isomer, unassigned) [Example 111] was 90 nM.

As to `CC1=C(N2C(=O)C3(CCN(C[C@H](O)c4cnc(-n5cnnn5)nc4)CC3)CC2C)COC1=O` (single isomer, unassigned) [Example 113], the IC50 is 80 nM. The value for `COC1CN(C2=C(C)C(=O)OC2)C(=O)C12CCN(C[C@H](O)c1ccc(-n3cnnn3)nc1)CC2` (single isomer, unassigned) [Example 114] was 60 nM; that for `COC1CN(C2=C(C)C(=O)OC2)C(=O)C12CCN(C[C@H](O)c1ccc(-n3cnnn3)nc1)CC2` (single isomer, unassigned) [Example 115] was 60 nM; that for `CC1=C(N2CCC3(CCN(C[C@H](O)c4ccc(-n5cnnn5)nc4C)CC3F)C2=O)COC1=O` (single isomer, unassigned) [Example 117] was 50 nM. `CC1=C(N2CCC3(CCN(C[C@H](O)c4ccc(-n5cnnn5)nc4C)CC3F)C2=O)COC1=O` (single isomer, unassigned) [Example 118] displayed an IC50 of 180 nM. To `CC1=C(N2C(=O)C3(CCN(C[C@H](O)c4ccc(-n5cnnn5)nn4)CC3)CC2C)COC1=O` (single isomer, unassigned) [Example 123] belongs 60 nM.

Turning to `CC1=C(N2C(=O)C3(CCN(C[C@@H](O)c4ccc(-n5cnnn5)nn4)CC3)CC2C)COC1=O` (single isomer, unassigned) [Example 124], half-maximal inhibition (IC50) required 40 nM. To `CC1=C(N2C(=O)C3(CCN(C[C@H](O)c4ccc(-n5cnnn5)nn4)CC3)CC2C)COC1=O` (single isomer, unassigned) [Example 125] belongs 60 nM; to `CC1=C(N2C(=O)C3(CCN(C[C@@H](O)c4ccc(-n5cnnn5)nn4)CC3)CC2C)COC1=O` (single isomer, unassigned) [Example 126], 90 nM; to `CC1=C(N2C(=O)C3(CC2C)CC2CCC(C3)N2C[C@H](O)c2ccc(-n3cnnn3)nc2)COC1=O` (single isomer, unassigned) [Example 133], 10 nM. The value for `CC1=C(N2C(=O)C3(CC2C)CC2CCC(C3)N2C[C@@H](O)c2ccc(-n3cnnn3)nc2)COC1=O` (single isomer, unassigned) [Example 134] was 60 nM; that for `CC1=C(N2C(=O)C3(CC2C)CC2CCC(C3)N2C[C@H](O)c2ccc(-n3cnnn3)nc2)COC1=O` (single isomer, unassigned) [Example 135] was 50 nM; that for `CC1=C(N2C(=O)C3(CC2C)CC2CCC(C3)N2C[C@@H](O)c2ccc(-n3cnnn3)nc2)COC1=O` (single isomer, unassigned) [Example 136] was 80 nM. The value for `CC1=C(N2C(=O)C3(CCN(C[C@H](O)c4ncc(-n5cnnn5)cc4C)CC3)CC2C)COC1=O` (single isomer, unassigned) [Example 137] was 80 nM; that for `CC1=C(N2C(=O)C3(CCN(C[C@@H](O)c4ncc(-n5cnnn5)cc4C)CC3)CC2C)COC1=O` (single isomer, unassigned) [Example 138] was 80 nM; that for `CC1=C(N2C(=O)C3(CCN(C[C@H](O)c4ccc(-n5cnnn5)cc4C)CC3)CC2C)COC1=O` (single isomer, unassigned) [Example 139] was 40 nM. With `CC1=C(N2C(=O)C3(CCN(C[C@@H](O)c4ccc(-n5cnnn5)cc4C)CC3)CC2C)COC1=O` (single isomer, unassigned) [Example 140], the IC50 turned out to be 10 nM. To `CC1=C(N2C(=O)C3(CCN(C[C@H](O)c4ccc(-n5cnnn5)cc4F)CC3)CC2C)COC1=O` (single isomer, unassigned) [Example 141] belongs 30 nM; to `CC1=C(N2C(=O)C3(CCN(C[C@@H](O)c4ccc(-n5cnnn5)cc4F)CC3)CC2C)COC1=O` (single isomer, unassigned) [Example 142], 30 nM; to `COC1CN(C2=C(C)C(=O)OC2)C(=O)C12CC1CCC(C2)N1C[C@H](O)c1ccc(-n2cnnn2)nc1` (single isomer, unassigned) [Example 159], 40 nM. As for `COC1CN(C2=C(C)C(=O)OC2)C(=O)C12CC1CCC(C2)N1C[C@H](O)c1cnc(-n2cnnn2)cn1` (single isomer, unassigned) [Example 160], 110 nM corresponded to half-maximal inhibition (IC50).

On to `COC1CN(C2=C(C)C(=O)OC2)C(=O)C12CC1CCC(C2)N1C[C@H](O)c1ccc(-n2cnnn2)nc1` (single isomer, unassigned) [Example 161], for which the IC50 turned out to be 30 nM. As to `COC1CN(C2=C(C)C(=O)OC2)C(=O)C12CC1CCC(C2)N1C[C@H](O)c1cnc(-n2cnnn2)cn1` (single isomer, unassigned) [Example 162], the midpoint of inhibition, the IC50, lay at 40 nM.

Regarding `COC1CN(C[C@H](O)c2ccc(-n3cnnn3)nc2)CCC12CCN(C1=C(C)C(=O)OC1)C2=O` (single isomer, unassigned) [Example 170], the IC50 amounted to 40 nM.

`COC1CN(C[C@@H](O)c2ccc(-n3cnnn3)nc2)CCC12CCN(C1=C(C)C(=O)OC1)C2=O` (single isomer, unassigned) [Example 171] registered an IC50 of 60 nM.
